Results: BindingDB's records for doi:10.1074/jbc.M805358200 (University of Pittsburgh, 2008)

What was measured:
Assay in all cases: IMAP-Based HTS FP Assay/ TR-FRET Assay
[1] = target: Cyclin-dependent kinase 7 (Homo sapiens, UniProt P50613)
From the text: (§1) An IMAP-based PKD HTS FR assay was used for primary HTS of the PMLSC library to identify hit compounds and subsequent secondary hit confirmation studies.

[2] = target: RAC-alpha serine/threonine-protein kinase (Homo sapiens, UniProt P31749)
From the text: as §1

[3] = target: Serine/threonine-protein kinase PLK1 (Homo sapiens, UniProt P53350)
From the text: as §1

[4] = target: T1, Serine/threonine-protein kinase D1 (Homo sapiens, UniProt Q15139)
T1 sequence (Q15139 whole entry): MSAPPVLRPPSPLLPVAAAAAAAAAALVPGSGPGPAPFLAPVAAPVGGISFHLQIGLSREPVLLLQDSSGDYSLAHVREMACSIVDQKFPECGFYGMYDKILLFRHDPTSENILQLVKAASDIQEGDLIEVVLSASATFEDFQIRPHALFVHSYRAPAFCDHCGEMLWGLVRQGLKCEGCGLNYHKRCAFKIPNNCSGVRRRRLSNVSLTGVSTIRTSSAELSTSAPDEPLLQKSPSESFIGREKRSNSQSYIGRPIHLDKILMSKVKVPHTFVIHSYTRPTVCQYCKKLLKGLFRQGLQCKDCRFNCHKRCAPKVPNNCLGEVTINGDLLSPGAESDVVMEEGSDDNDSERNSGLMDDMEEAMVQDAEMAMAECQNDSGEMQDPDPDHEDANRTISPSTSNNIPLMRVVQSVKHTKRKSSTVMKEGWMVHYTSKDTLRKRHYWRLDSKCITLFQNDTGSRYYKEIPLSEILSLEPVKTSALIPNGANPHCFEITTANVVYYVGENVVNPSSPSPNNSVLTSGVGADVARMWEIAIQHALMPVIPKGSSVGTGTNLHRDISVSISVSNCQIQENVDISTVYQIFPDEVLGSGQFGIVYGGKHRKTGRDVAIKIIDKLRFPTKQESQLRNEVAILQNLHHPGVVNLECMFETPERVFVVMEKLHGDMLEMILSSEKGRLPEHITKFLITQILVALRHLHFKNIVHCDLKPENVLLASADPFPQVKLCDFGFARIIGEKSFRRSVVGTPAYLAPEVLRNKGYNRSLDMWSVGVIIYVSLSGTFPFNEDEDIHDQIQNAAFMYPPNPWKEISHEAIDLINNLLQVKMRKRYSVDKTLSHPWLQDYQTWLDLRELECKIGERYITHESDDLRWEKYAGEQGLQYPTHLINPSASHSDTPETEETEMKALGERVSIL
From the text: as §1

Sequence of Cyclin-dependent kinase 7 (P50613 whole entry): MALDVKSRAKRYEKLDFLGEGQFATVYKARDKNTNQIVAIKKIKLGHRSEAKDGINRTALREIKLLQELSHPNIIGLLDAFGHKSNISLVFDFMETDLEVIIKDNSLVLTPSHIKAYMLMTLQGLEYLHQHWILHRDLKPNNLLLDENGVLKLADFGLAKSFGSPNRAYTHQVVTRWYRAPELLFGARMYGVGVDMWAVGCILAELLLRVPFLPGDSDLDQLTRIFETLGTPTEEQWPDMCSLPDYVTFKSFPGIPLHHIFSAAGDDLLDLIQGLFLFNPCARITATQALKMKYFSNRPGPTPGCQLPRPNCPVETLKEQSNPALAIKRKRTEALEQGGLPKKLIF
Sequence of Serine/threonine-protein kinase PLK1 (P53350 whole entry): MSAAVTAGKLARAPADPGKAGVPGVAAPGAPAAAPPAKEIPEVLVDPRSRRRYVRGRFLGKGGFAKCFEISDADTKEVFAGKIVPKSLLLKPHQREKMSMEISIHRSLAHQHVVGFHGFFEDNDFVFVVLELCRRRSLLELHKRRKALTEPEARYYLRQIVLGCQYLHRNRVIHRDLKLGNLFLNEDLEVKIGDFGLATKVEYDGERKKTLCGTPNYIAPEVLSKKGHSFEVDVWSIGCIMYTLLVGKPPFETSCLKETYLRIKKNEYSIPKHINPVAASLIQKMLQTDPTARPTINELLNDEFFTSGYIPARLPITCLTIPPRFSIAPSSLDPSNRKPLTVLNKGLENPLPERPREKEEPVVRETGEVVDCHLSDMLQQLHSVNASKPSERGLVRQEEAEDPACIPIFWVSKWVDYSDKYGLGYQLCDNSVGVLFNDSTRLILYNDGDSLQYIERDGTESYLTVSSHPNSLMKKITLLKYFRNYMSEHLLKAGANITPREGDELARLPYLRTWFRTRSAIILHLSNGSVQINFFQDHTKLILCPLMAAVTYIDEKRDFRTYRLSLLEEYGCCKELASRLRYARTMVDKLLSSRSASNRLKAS
Sequence of RAC-alpha serine/threonine-protein kinase (P31749 whole entry): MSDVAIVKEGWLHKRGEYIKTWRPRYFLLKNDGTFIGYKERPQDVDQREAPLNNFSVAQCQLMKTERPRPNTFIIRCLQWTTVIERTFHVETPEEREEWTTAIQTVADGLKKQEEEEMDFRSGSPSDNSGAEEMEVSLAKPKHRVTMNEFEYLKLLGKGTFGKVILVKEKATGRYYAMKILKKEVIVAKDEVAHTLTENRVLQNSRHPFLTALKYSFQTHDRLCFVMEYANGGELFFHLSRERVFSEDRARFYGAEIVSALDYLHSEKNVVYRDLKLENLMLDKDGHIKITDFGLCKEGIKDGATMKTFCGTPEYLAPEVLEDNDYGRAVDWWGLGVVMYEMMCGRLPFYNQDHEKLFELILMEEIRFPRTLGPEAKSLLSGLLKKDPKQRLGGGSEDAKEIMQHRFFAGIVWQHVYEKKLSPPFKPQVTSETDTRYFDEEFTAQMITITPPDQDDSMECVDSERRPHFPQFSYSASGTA

SMILES	IC50 [1]	IC50 [2]	IC50 [3]	IC50 [4]
O=c1oc2ccc(O)cc2c2c1NCCC2 [CID 797718]	8.4 µM	> 50 µM	21.9 µM	–
O=C1NCCCc2c1oc1ccc(O)cc21 [7-hydroxy-2,3,4,5-tetrahydro-[1]benzofuro[2,3-c]azepin-1-one]	15.3 µM	> 50 µM	20.3 µM	0.5 µM
